The text below walks through data of US20160045505A1, “COMPOUNDS AND COMPOSITIONS FOR THE TREATMENT OF PARASITIC DISEASES” (NOVARTIS AG, priority 2013, published 2016).

SMILES strings stand for the structures. Where two headings read alike, the source gives them in different places.

For assay [1], the system named is Leishmania donovani axenic amastigote parasites. The experiment in a line: Leishmania donovani axenic amastigote proliferation assay (Cell TiterGlo luminescence, 2 day incubation). As to conditions: Leishmania donovani, read-out: L. donovani amastigotes EC50. The format is cell-based. (In general: ATP-based viability assays read luminescence as a measure of living cells.)

Assay [2] has as its system Trypanosoma brucei Lister 427 strain, bloodstream form. The experiment in a line: Assay for proliferation of kinetoplastid parasite Trypanosoma brucei (Cell Titer Glo, 48 hours). The settings on record: Trypanosoma brucei, T. brucei Lister 427 bloodstream form, read-out: T. brucei EC50. The assay is classed as cell-based. An excerpt: Assay for Proliferation of Kinetoplastid Parasite Trypanosoma brucei.
The proliferation is quantified by the addition of Cell Titer Glo (Promega®) a luminescent cell viability assay that measures the number of viable cells in culture based on the quantification of cellular ATP amount, which is an indicator of metabolically active cells.
The following assay illustrates the invention without in any way limiting the scope of the invention. This parasite proliferation assay measures the increase in parasite growth using an assay that measures ATP activity, Cell Titer Glo®.
Trypanosoma brucei Lister 427 strain is grown in HMI-9 Trypanosome media for T. brucei bloodstream form. 30 μl of HMI-9 media is dispensed into 384 well assay plates. 200 nl of compounds of the invention (in DMSO), including anti-trypanosome controls (Pentamidine and suramin), are then transferred into the assay plates, as well as DMSO alone to serve as a negative control for inhibition. Then 25 μl of a suspension of T. brucei culture in HMI-9 media is dispensed into the assay plates. The final concentration of parasites in culture corresponds to 1.7% of 0.5 uM ATP activity with Cell Titer Glo® in HMI-9 media. The plates are placed in a 37° C. incubator for 48 hours in an atmospheric environment containing 5% CO2. 40 μl of Cell Titer Glo® is dispensed into the plates. The plates are then read for luminescence. The percentage inhibition of 50%, EC50, is calculated for each compound.

Assay [3] deals with L. donovani HU3 strain in mouse peritoneal macrophages. Description: Assay for proliferation of Leishmania parasites in infected mouse peritoneal macrophages (SybrGreen staining, high-content imaging, 5 days). The format is cell-based, Leishmania donovani. As to conditions: Leishmania donovani, Peritoneal macrophage, L. donovani in mouse peritoneal macrophages, read-out: L. donovani Macrophage EC50.

Assay [4] deals with Trypanosoma cruzi amastigotes (Tulahuen strain expressing Lac-Z) cultured in 3T3 fibroblast cells. The experiment in a line: microbe, parasite or virus in culture. The format is cell-based. As to conditions: Trypanosoma cruzi, TULAHUEN, Fibroblast, T. cruzi amastigotes in 3T3 fibroblast cells; read-out: T cruzi EC50.
The mark [5] stands for this setting: axenic amastigotes, inhibition of proliferation.

As to `Cc1ncc(C(=O)Nc2ccc(F)c(-c3cn4cc(-c5cccnc5)cnc4n3)c2)o1` [Compound 398], the EC50 in assay [1] (L. donovani axenic amastigotes) is 186 nM; in assay [2] it was 317 nM; in assay [3] it was 424 nM; in assay [4], 572 nM.

Turning to `Cc1cnc(F)c(-c2cnc3nc(-c4cc(NC(=O)c5oc(C)nc5C)ccc4F)cn3c2)c1` [Compound 439], the EC50 in assay [1] (L. donovani axenic amastigotes) turned out to be 108 nM; in assay [2], 121 nM; in assay [3], 754 nM; in assay [4] it was 89 nM.

In the case of `Cc1nc(C)c(C(=O)Nc2ccc(F)c(-c3cn4cc(C5CCN(CCO)CC5)cnc4n3)c2)o1` [Compound 541], the EC50 in assay [1] (L. donovani axenic amastigotes) is more than 25000 nM; in assay [2], 9920 nM; in assay [4], more than 20000 nM.

With `COCCN1CCC(c2cnc3nc(-c4cc(NC(=O)c5oc(C)nc5C)ccc4F)cn3c2)CC1` [Compound 540], the EC50 in assay [1] (L. donovani axenic amastigotes) was more than 25000 nM; in assay [2], 868 nM; in assay [4] it was 1330 nM.

Take `Cc1cccnc1-c1cnc2nc(-c3cc(NC(=O)N4CC(F)(F)C4)ccc3F)cn2c1` [Compound 403]: the EC50 worked out at 63 nM in assay [1] (L. donovani axenic amastigotes), 55 nM in assay [2] and 181 nM in assay [3].

Turning to `Cc1cccnc1-c1cnc2nc(-c3cc(NC(=O)N4CC[C@@H](F)C4)ccc3F)cn2c1` [Compound 410], the EC50 in assay [1] (L. donovani axenic amastigotes) worked out at 22 nM; in assay [2] it was 17 nM; in assay [3] it was 65 nM.

Take `CC(C)OC(=O)Nc1cnc2nc(-c3cc(NC(=O)N4CC(C#N)C4)ccc3F)cn2c1` [Compound 290]: the EC50 was 3140 nM in assay [1] (setting [5]), 12600 nM in assay [2] (inhibition of proliferation) and more than 45700 nM in assay [3] (inhibition of proliferation).

As for `COCCOC(=O)Nc1ccc(Cl)c(-c2cn3cc(-c4ccccc4)cnc3n2)c1` [Compound 35], the EC50 in assay [1] (setting [5]) came out at 730 nM; in assay [2] (inhibition of proliferation) it was 1120 nM; in assay [3] (inhibition of proliferation), 870 nM.

Regarding `O=C(Nc1ccc(Cl)c(-c2cn3cc(-c4ccsc4)cnc3n2)c1)N1CCCC1` [Compound 28], the figures for the EC50 in assay [1] (setting [5]), in assay [2] (inhibition of proliferation) and in assay [3] (inhibition of proliferation) were 28 nM, 9.36 nM and 129 nM, respectively.

As to `CC(C)OC(=O)Nc1cccc(-c2cn3cc(NC(=O)OC(C)C)cnc3n2)c1` [Compound 21], the EC50 stood at 1970 nM in assay [1] (setting [5]), 187 nM in assay [2] (inhibition of proliferation) and 1050 nM in assay [3] (inhibition of proliferation).

Regarding `CC(C)OC(=O)Nc1cnc2nc(-c3cc(NC(=O)N4CC(Cl)C4)ccc3F)cn2c1` [Compound 291], the results for the EC50 in assay [1] (setting [5]), in assay [2] (inhibition of proliferation) and in assay [3] (inhibition of proliferation) were 390 nM, 206 nM and 968 nM, respectively.

For the compound `Cc1ccc(C(=O)Nc2cccc(-c3cn4cc(NC(=O)OC(C)C)cnc4n3)c2)o1` [Compound 13], the EC50 in assay [1] (setting [5]) was determined as 1720 nM; in assay [2] (inhibition of proliferation), 181 nM; in assay [3] (inhibition of proliferation) it was 810 nM.

For `Cc1nc(C)c(C(=O)Nc2ccc(F)c(-c3cn4cc(-c5sc(C)nc5C)cnc4n3)c2)o1` [Compound 365], the EC50 in assay [1] (setting [5]) amounted to 102 nM; in assay [2] (inhibition of proliferation), 59 nM; in assay [3] (inhibition of proliferation) it was 200 nM.

As for `CS(=O)(=O)Nc1ccc(F)c(-c2cn3cc(Br)cnc3n2)c1` [Compound 316, N-(3-(6-bromoimidazo[1,2-a]pyrimidin-2-yl)-4-Fluorophenyl)methanesulfonamide], the EC50 in assay [1] (setting [5]) is more than 25000 nM; in assay [2] (inhibition of proliferation) it was more than 50000 nM; in assay [3] (inhibition of proliferation), more than 50000 nM.

For the compound `O=C(Nc1ccc(Cl)c(-c2cn3cc(Cl)cnc3n2)c1)c1ccco1` [Compound 38], the EC50 in assay [1] (setting [5]) is 5900 nM; in assay [2] (inhibition of proliferation) it was 1800 nM; in assay [3] (inhibition of proliferation) it was 15600 nM.

For the compound `Cc1nc(C)c(C(=O)Nc2ccc(F)c(-c3cn4cc(C5CCN(C(=O)CO)CC5)cnc4n3)c2)o1` [Compound 542, N-(4-fluoro-3-(6-(1-(2-hydroxyacetyl)piperidin-4-yl)imidazo[1,2-a]pyrimidin-2-yl)phenyl)-2,4-dimethyloxazole-5-carboxamide], the results for the EC50 in assay [1] (L. donovani axenic amastigotes), in assay [2] and in assay [4] were 450 nM, 467 nM and 8060 nM, respectively.

With `O=C(Nc1ccc(F)c(-c2cn3cc(NC(=O)C(F)(F)F)cnc3n2)c1)N1CCCC1` [Compound 566, N-(4-fluoro-3-(6-(2,2,2-trifluoroacetamido)imidazo[1,2-a]pyrimidin-2-yl)phenyl)pyrrolidine-1-carboxamide], the EC50 in assay [1] (L. donovani axenic amastigotes) was determined as 1140 nM; in assay [2], 212 nM; in assay [3], 12000 nM.

Turning to `CC(C)(C)OC(=O)Nc1cnc2nc(-c3cccc(NC(=O)N4CCCC4)c3F)cn2c1` [Compound 579], the EC50 in assay [1] (L. donovani axenic amastigotes) was more than 25000 nM; in assay [2] it was 36200 nM; in assay [3], more than 50000 nM.

Take `COCCOC(=O)Nc1ccc(Cl)c(-c2cn3cc(-c4ccc(NC(=O)OC)cc4)cnc3n2)c1` [Compound 32, 2-methoxyethyl N-[4-chloro-3-(6-{4-[(methoxycarbonyl)amino]phenyl}imidazo[1,2-a]pyrimidin-2-yl)phenyl]carbamate]: the values for the EC50 in assay [1] (setting [5]), in assay [2] (inhibition of proliferation) and in assay [3] (inhibition of proliferation) were 118 nM, 186 nM and 330 nM, respectively.

Regarding `CC(C)OC(=O)Nc1cnc2nc(-c3cc(NC(=O)N4CCC4)ccc3F)cn2c1` [Compound 226], the EC50 in assay [1] (setting [5]) was found to be 42 nM; in assay [2] (inhibition of proliferation), 37 nM; in assay [3] (inhibition of proliferation) it was 384 nM.

As for `CC(C)OC(=O)Nc1cnc2nc(-c3cccc(NC(=O)c4ccc(Cl)o4)c3)cn2c1` [Compound 18], the EC50 was found to be 410 nM in assay [1] (setting [5]), 56.8 nM in assay [2] (inhibition of proliferation) and 172 nM in assay [3] (inhibition of proliferation).

`COC(=O)Nc1ccc(-c2cnc3nc(-c4cc(NC(=O)N5CCCC5)ccc4Cl)cn3c2)cc1` [Compound 24, methyl (4-(2-(2-chloro-5-(pyrrolidine-1-carboxamido)phenyl)imidazo[1,2-a]pyrimidin-6-yl)phenyl)carbamate]: the EC50 amounted to 19.9 nM in assay [1] (setting [5]), 8.45 nM in assay [2] (inhibition of proliferation) and 57 nM in assay [3] (inhibition of proliferation).

Take `CN1CCN(C(=O)Nc2ccc(F)c(-c3cn4cc(Br)cnc4n3)c2)CC1` [Compound 516]: the EC50 in assay [1] (L. donovani axenic amastigotes) is more than 25000 nM; in assay [2] it was more than 50000 nM; in assay [3] it was 21000 nM.

Turning to `O=C(Nc1ccc(Cl)c(-c2nc3ncc(-c4ccccc4)cn3c2F)c1)N1CCCC1` [Compound 39], the EC50 in assay [1] (setting [5]) was more than 3400 nM; in assay [2] (inhibition of proliferation) it was 74.5 nM; in assay [3] (inhibition of proliferation) it was 180 nM.

For `CON(C)C(=O)Nc1ccc(F)c(-c2cn3cc(NC(=O)OC(C)C)cnc3n2)c1` [Compound 221], the values for the EC50 in assay [1] (setting [5]), in assay [2] (inhibition of proliferation) and in assay [3] (inhibition of proliferation) were 249 nM, 177 nM and 1060 nM, respectively.

For the compound `CC(C)OC(=O)Nc1cnc2nc(-c3cc(NC(=O)N4CCC(F)(F)C4)ccc3Cl)cn2c1` [Compound 4, isopropyl (2-(2-chloro-5-(3,3-difluoropyrrolidine-1-carboxamido)phenyl)imidazo[1,2-a]pyrimidin-6-yl)carbamate], the EC50 in assay [1] (setting [5]) was found to be 1340 nM; in assay [2] (inhibition of proliferation) it was 2360 nM; in assay [3] (inhibition of proliferation), 2220 nM.

Consider `CN(C)c1cnc2nc(-c3cc(NC(=O)N4CC(F)C4)ccc3F)cn2c1` [Compound 593], for which the EC50 was 255 nM in assay [1] (L. donovani axenic amastigotes), 54 nM in assay [2] and 160 nM in assay [3].

`CCOC(=O)Nc1cccc(-c2cn3cc(NC(=O)OC(C)C)cnc3n2)c1` [Compound 10]: the EC50 came to 2980 nM in assay [1] (setting [5]), 231 nM in assay [2] (inhibition of proliferation) and 2360 nM in assay [3] (inhibition of proliferation).

For the compound `Cc1nc(C)c(C(=O)Nc2ccc(F)c(-c3cn4cc(CC(F)(F)F)cnc4n3)c2)o1` [Compound 575, N-(4-fluoro-3-(6-(2,2,2-trifluoroethyl)imidazo[1,2-a]pyrimidin-2-yl)phenyl)-2,4-dimethyloxazole-5-carboxamide], the EC50 in assay [1] (L. donovani axenic amastigotes) turned out to be 78 nM; in assay [2], 22 nM; in assay [4] it was 52 nM.

On to `Cc1nc(C)c(C(=O)Nc2ccc(F)c(-c3cn4cc(C5CC5)cnc4n3)c2)o1` [Compound 339, N-(3-(6-cyclopropylimidazo[1,2-a]pyrimidin-2-yl)-4-fluorophenyl)-2,4-dimethyloxazole-5-carboxamide], for which the EC50 in assay [1] (setting [5]) was 85 nM; in assay [2] (inhibition of proliferation), 80 nM; in assay [3] (inhibition of proliferation) it was 272 nM.

Regarding `CC(C)OC(=O)Nc1cnc2nc(-c3cc(NC(=O)c4cncn4C)ccc3F)cn2c1` [Compound 96], the EC50 was more than 15800 nM in assay [1] (setting [5]), 1480 nM in assay [2] (inhibition of proliferation) and 42200 nM in assay [3] (inhibition of proliferation).

In the case of `CNc1ccc(-c2cnc3nc(-c4cc(NC(=O)N5CCCC5)ccc4Cl)cn3c2)cc1` [Compound 26, N-(4-chloro-3-(6-(4-(methylamino)phenyl)imidazo[1,2-a]pyrimidin-2-yl)phenyl)pyrrolidine-1-carboxamide], the EC50 in assay [1] (setting [5]) was 57 nM; in assay [2] (inhibition of proliferation), 23.3 nM; in assay [3] (inhibition of proliferation), 104 nM.

In general, EC50 refers to the midpoint of the concentration-response curve.
